The record followed here is patent US7592336B2, “Hepatitis C virus inhibitors” (Bristol-Myers Squibb Company, priority 2005, dated 2009).

The test system of assay [1] is HCV replicon (Renilla luciferase) in HUH-7 cells. The assay is described as follows: HCV replicon luciferase reporter assay. The class given is cell-based, HCV strain 1b. As to conditions: Huh-7, 96 h, 4 days. From the text: As a secondary assay, EC50 determinations from the replicon FRET assay were confirmed in a replicon luciferase reporter assay. Utilization of a replicon luciferase reporter assay was first described by Krieger et al (Krieger N, Lohmann V, and Bartenschlager R, J. Virol. 75(10):4614-4624 (2001)). The replicon construct described for our FRET assay was modified by inserting cDNA encoding a humanized form of the Renilla luciferase gene and a linker sequence fused directly to the 3′-end of the luciferase gene. This insert was introduced into the replicon construct using an Asc1 restriction site located in core, directly upstream of the neomycin marker gene. The adaptive mutation at position 1179 (serine to isoleucine) was also introduced (Blight K J, Kolykhalov, A A, Rice, C M, Science 290(5498):1972-1974). A stable cell line constitutively expressing this HCV replicon construct was generated as described above. The luciferase reporter assay was set up as described for the HCV replicon FRET assay with the following modifications. Following 4 days in a 37° C./5% CO2 incubator, cells were analyzed for Renilla Luciferase activity using the Promega Dual-Glo Luciferase Assay System. […] Plates were read on a Packard TopCount NXT using a luminescence program.
The percentage inhibition was calculated using the formula below: […]
The values were graphed and analyzed using XLfit to obtain the EC50 value.

The target in assay [2] is T1, human neutrophil elastase (HNE) (Homo sapiens, UniProt P08246).
T1 construct: purchased Sigma
T1 sequence (P08246 30-267): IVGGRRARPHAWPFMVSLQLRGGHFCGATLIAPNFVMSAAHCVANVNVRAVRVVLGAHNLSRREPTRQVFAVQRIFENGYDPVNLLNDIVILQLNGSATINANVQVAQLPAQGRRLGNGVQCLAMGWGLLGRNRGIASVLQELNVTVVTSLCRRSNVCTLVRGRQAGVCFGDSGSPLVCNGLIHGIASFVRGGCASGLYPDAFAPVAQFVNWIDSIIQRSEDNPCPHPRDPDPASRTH
The assay is described as follows: Specificity assay, neutrophil elastase. The class given is biochemical. As to conditions: 2 h enzyme-inhibitor pre-incubation; read-out: HLE activity in the specificity assays (IC50). The protocol: (§1) The specificities of compounds of the present disclosure were determined against a variety of serine proteases: human neutrophil elastase (HNE), porcine pancreatic elastase (PPE) and human pancreatic chymotrypsin and one cysteine protease: human liver cathepsin B. In all cases a 96-well plate format protocol using calorimetric p-nitroaniline (pNA) substrate specific for each enzyme was used as described previously (PCT Patent Application No. WO 00/09543) with some modifications to the serine protease assays. All enzymes were purchased from Sigma while the substrates were from Bachem.
(§2) Each assay included a 2 h enzyme-inhibitor pre-incubation at room temperature followed by addition of substrate and hydrolysis to 30% conversion as measured on a Spectramax Pro microplate reader. Compound concentrations varied from 100 to 0.4 μM depending on their potency. […]
(§3) The percentage of inhibition was calculated using the formula: [1−((UVinh−UVblank)/(UVctl−UVblank))]×100 […]

Assay [3] relates to T2, human pancreatic chymotrypsin.
T2 construct: "human pancreatic chymotrypsin"
The assay is described as follows: Specificity assay, chymotrypsin. The class given is biochemical. The following applies: 2 h enzyme-inhibitor pre-incubation; read-out: Chymotrypsin activity in the specificity assays (IC50). The protocol:
as §1, §2, §3

pEC50, pIC50: −log10 of the molar value.

For the compound `C=C[C@@H]1C[C@]1(NC(=O)[C@@H]1C[C@@](O)(c2ccc(-c3ccccc3)cc2)CN1C(=O)[C@@H](NC(=O)OC(C)(C)C)C(C)(C)C)C(=O)NS(=O)(=O)C1CC1` [Compound 3], in assay [1], the pEC50 (usually the negative decadic logarithm of the EC50, by convention in mol/L) was 7.85. Moreover, the pIC50 in assay [2] and in assay [3] was less than 4.00 in each case.
